Values of other authors, collected in patent US20260207488A1, “Liquid pharmaceutical composition containing flecainide and process for the preparation thereof” (Colonis Pharma Ltd, priority 2022, published 2026).

Legend:
[1] = water

aqueous solubility [1]: about 48.0 mg/mL
solubility (BCS): high solubility
Compound: CC(=O)O.O=C(NCC1CCCCN1)c1cc(OCC(F)(F)F)ccc1OCC(F)(F)F (centres unmarked) [Flecainide Acetate, N-(2-piperidinylmethyl)-2,5-bis(2,2,2-trifluoroethoxy)benzamide monoacetate]
